# In patent US8143290B2, “Chemical compounds 572” (AstraZeneca AB, priority 2006, dated 2012):
# Molecular target: T1, recombinant human GR (Homo sapiens, UniProt P04150)
# T1 construct: purchased Panvera/Invitrogen P2812 (kit P2893)
# T1 sequence (P04150 1-777): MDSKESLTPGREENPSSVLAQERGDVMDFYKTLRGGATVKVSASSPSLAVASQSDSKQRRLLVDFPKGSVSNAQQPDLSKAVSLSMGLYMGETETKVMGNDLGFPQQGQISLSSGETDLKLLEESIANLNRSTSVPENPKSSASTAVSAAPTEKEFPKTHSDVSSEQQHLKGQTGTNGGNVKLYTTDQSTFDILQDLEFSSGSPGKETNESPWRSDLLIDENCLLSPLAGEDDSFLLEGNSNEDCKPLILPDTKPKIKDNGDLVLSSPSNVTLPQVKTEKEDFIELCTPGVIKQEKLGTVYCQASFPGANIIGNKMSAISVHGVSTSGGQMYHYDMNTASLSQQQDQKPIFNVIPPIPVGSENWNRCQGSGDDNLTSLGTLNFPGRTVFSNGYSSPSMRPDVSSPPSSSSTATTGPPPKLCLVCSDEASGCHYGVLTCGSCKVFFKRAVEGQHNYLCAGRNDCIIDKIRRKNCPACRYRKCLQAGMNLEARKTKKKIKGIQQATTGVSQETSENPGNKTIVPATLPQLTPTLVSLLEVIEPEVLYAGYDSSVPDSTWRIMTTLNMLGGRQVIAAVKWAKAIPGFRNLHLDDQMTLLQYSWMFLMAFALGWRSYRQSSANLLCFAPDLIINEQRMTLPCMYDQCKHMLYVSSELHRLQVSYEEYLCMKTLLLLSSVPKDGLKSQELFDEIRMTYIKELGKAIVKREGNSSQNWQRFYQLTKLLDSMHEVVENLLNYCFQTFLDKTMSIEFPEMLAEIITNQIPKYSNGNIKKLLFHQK
# Experiment: Human Glucocorticoid Receptor (GR) Assay, fluorescence polarization
# Format: binding
# Conditions: GS Red tracer, incubated 2 h at r.t., XLfit model 205, read-out: GRhuFL_FP_v2 Mean IC50
# Experimental: Human Glucocorticoid Receptor (GR) Assay
# The assay is based on a commercial kit from Panvera/Invitrogen (Part number P2893). The assay technology is fluorescence polarization. […] The GR and Stabilizing Peptide reagents are stored at −70° C. while the GS Red is stored at −20° C. Also included in the kit are 1M DTT (Panvera, Part number P2325, stored at −20° C.) and GR Screening buffer 10× (Panvera, Part number P2814, stored at −70° C. initially but once thawed stored at r.t.). Avoid repeated freeze/thaws for all reagents. The GR Screening buffer 10× comprises 100 mM potassium phosphate, 200 mM sodium molybdate, 1 mM EDTA and 20% DMSO.
# 0% control was 100% DMSO and 100% control was […] Dexamethasone. Background solution (8 μL; assay buffer 10×, Stabilizing Peptide, DTT and ice cold MQ water) was added to the background wells. GS Red solution (7 μL; assay buffer 10×, Stabilizing Peptide, DTT, GS Red and ice cold water) was added to all wells except background wells. GR solution (7 μL; assay buffer 10×, Stabilizing Peptide, DTT, GR and ice cold water) was added to all wells. The plate was sealed and incubated in a dark at r.t. for 2 h.
row,SMILES,IC50
1,"Cc1cccc([C@@H](Oc2ccc3c(cnn3-c3ccc(F)cc3)c2)[C@H](C)NC(=O)C(F)(F)F)c1 [Example 24, 2,2,2-trifluoro-N-[(1R,2S)-1-[1(4-fluorophenyl)indazol-5-yl]oxy-1-(3-methylphenyl)propan-2-yl]acetamide]",3.2 nM
2,"CCSCc1ccc([C@@H](Oc2ccc3c(cnn3-c3ccc(F)cc3)c2)[C@H](C)NC(=O)C(F)(F)F)cc1 [Example 25, N-[(1R,2S)-1-[4-(ethylsulfanylmethyl)phenyl]-1-[1-(4-fluorophenyl)indazol-5-yl]oxy-propan-2-yl]-2,2,2-trifluoro-acetamide]",11 nM
3,"CC[S+]([O-])Cc1ccc([C@@H](Oc2ccc3c(cnn3-c3ccc(F)cc3)c2)[C@H](C)NC(=O)C(F)(F)F)cc1 (stereo partly drawn) [Example 26, N-[(1R,2S)-1-[4-(ethylsulfinylmethyl)phenyl]-1-[1-(4-fluorophenyl)indazol-5-yl]oxy-propan-2-yl]-2,2,2-trifluoro-acetamide]",5.9 nM
4,"CCSCc1ccc([C@@H](Oc2ccc3c(cnn3-c3ccc(F)cc3)c2)[C@H](C)NC(=O)CO)cc1 [Example 27, N-[(1R,2S)-1-[4-(ethylsulfanylmethyl)phenyl]-1-[1-(4-fluorophenyl)indazol-5-yl]oxy-propan-2-yl]-2-hydroxy-acetamide]",3.2 nM
5,"C[C@H](NC(=O)CCCN)[C@H](Oc1ccc2c(cnn2-c2ccc(F)cc2)c1)c1ccccc1 [Example 28, 4-Amino-N-[(1R,2S)-1-[1-(4-fluorophenyl)indazol-5-yl]oxy-1-phenyl-propan-2-yl]butanamide]",25 nM
6,"COCC(=O)N[C@@H](C)[C@H](Oc1ccc2c(cnn2-c2ccc(F)cc2)c1)c1ccccc1 [Example 31, N-[(1R,2S)-1-[1-(4-fluorophenyl)indazol-5-yl]oxy-1-phenyl-propan-2-yl]-2-methoxy-acetamide]",2.8 nM
7,"C[C@H](NC(=O)Cc1ccccc1)[C@H](Oc1ccc2c(cnn2-c2ccc(F)cc2)c1)c1ccccc1 [Example 33, N-[(1R,2S)-1-[1-(4-fluorophenyl)indazol-5-yl]oxy-1-phenyl-propan-2-yl]-2-phenyl-acetamide]",18 nM
8,"CC(=O)OCC(=O)N[C@@H](C)[C@H](Oc1ccc2c(cnn2-c2ccc(F)cc2)c1)c1ccccc1 [Example 34, [(1R,2S)-1-[1-(4-fluorophenyl)indazol-5-yl]oxy-1-phenyl-propan-2-yl]carbamoylmethyl acetate]",2.4 nM
9,"COC(=O)C(=O)N[C@@H](C)[C@H](Oc1ccc2c(cnn2-c2ccc(F)cc2)c1)c1ccccc1 [Example 35, Methyl [(1R,2S)-1-[1-(4-fluorophenyl)indazol-5-yl]oxy-1-phenyl-propan-2-yl]carbamoylformate]",2.1 nM
10,"C[C@H](NC(=O)C(=O)O)[C@H](Oc1ccc2c(cnn2-c2ccc(F)cc2)c1)c1ccccc1 [Example 36, [(1R,2S)-1-[1-(4-fluorophenyl)indazol-5-yl]oxy-1-phenyl-propan-2-yl]carbamoylformic acid]",10 nM
11,"CC(C)C(=O)N[C@@H](C)[C@H](Oc1ccc2c(cnn2-c2ccc(F)cc2)c1)c1ccccc1 [Example 37, N-[(1R,2S)-1-[1-(4-fluorophenyl)indazol-5-yl]oxy-1-phenyl-propan-2-yl]-2-methyl-propanamide]",2.4 nM
12,"C[C@H](NC(=O)CCl)[C@H](Oc1ccc2c(cnn2-c2ccc(F)cc2)c1)c1ccccc1 [Example 38, 2-Chloro-N-[(1R,2S)-1-[1-(4-fluorophenyl)indazol-5-yl]oxy-1-phenyl-propan-2-yl]acetamide]",2.4 nM
13,"C[C@H](NC(=O)C(Cl)Cl)[C@H](Oc1ccc2c(cnn2-c2ccc(F)cc2)c1)c1ccccc1 [Example 39, 2,2-Dichloro-N-[(1R,2S)-1-[1-(4-fluorophenyl)indazol-5-yl]oxy-1-phenyl-propan-2-yl]acetamide]",6.4 nM
14,"C[C@H](NC(=O)C(Cl)(Cl)Cl)[C@H](Oc1ccc2c(cnn2-c2ccc(F)cc2)c1)c1ccccc1 [Example 40, 2,2,2-Trichloro-N-[(1R,2S)-1-[1-(4-fluorophenyl)indazol-5-yl]oxy-1-phenyl-propan-2-yl]acetamide]",3.4 nM
15,"CCCC(=O)N[C@@H](C)[C@H](Oc1ccc2c(cnn2-c2ccc(F)cc2)c1)c1ccccc1 [Example 41, N-[(1R,2S)-1-[1-(4-fluorophenyl)indazol-5-yl]oxy-1-phenyl-propan-2-yl]butanamide]",2.6 nM
16,"C[C@H](NC(=O)C1CCC1)[C@H](Oc1ccc2c(cnn2-c2ccc(F)cc2)c1)c1ccccc1 [Example 43, N-[(1R,2S)-1-[1-(4-fluorophenyl)indazol-5-yl]oxy-1-phenyl-propan-2-yl]cyclobutanecarboxamide]",2.2 nM
17,"C[C@H](NC(=O)C(F)F)[C@H](Oc1ccc2c(cnn2-c2ccc(F)cc2)c1)c1ccccc1 [Example 44, 2,2-Difluoro-N-[(1R,2S)-1-[1-(4-fluorophenyl)indazol-5-yl]oxy-1-phenyl-propan-2-yl]acetamide]",2.7 nM
18,"C[C@H](NC(=O)CF)[C@H](Oc1ccc2c(cnn2-c2ccc(F)cc2)c1)c1ccccc1 [Example 45, 2-Fluoro-N-[(1R,2S)-1-[1-(4-fluorophenyl)indazol-5-yl]oxy-1-phenyl-propan-2-yl]acetamide]",2.6 nM
19,"CCc1ccc([C@@H](Oc2ccc3c(cnn3-c3ccc(F)cc3)c2)[C@H](C)NC(=O)C(F)(F)F)cc1 [Example 46, N-[(1R,2S)-1-(4-ethylphenyl)-1-[1-(4-fluorophenyl)indazol-5-yl]oxy-propan-2-yl]-2,2,2-trifluoro-acetamide]",3.4 nM
20,"C[C@H](NC(=O)C(F)Cl)[C@H](Oc1ccc2c(cnn2-c2ccc(F)cc2)c1)c1ccccc1 (stereo partly drawn) [Example 47, 2-Chloro-2-fluoro-N-[(1R,2S)-1-[1-(4-fluorophenyl)indazol-5-yl]oxy-1-phenyl-propan-2-yl]acetamide]",2.5 nM
21,"C[C@H](O)C(=O)N[C@@H](C)[C@H](Oc1ccc2c(cnn2-c2ccc(F)cc2)c1)c1ccccc1 [Example 48, (2S)-N-[(1R,2S)-1-[1-(4-fluorophenyl)indazol-5-yl]oxy-1-phenyl-propan-2-yl]-2-hydroxy-propanamide]",2.9 nM
22,"CCc1ccc([C@@H](Oc2ccc3c(cnn3-c3ccc(F)cc3)c2)[C@H](C)NC(=O)CF)cc1 [Example 50, N-[(1R,2S)-1-(4-ethylphenyl)-1-[1-(4-fluorophenyl)indazol-5-yl]oxy-propan-2-yl]-2-fluoro-acetamide]",2.9 nM
23,"CCc1ccc([C@@H](Oc2ccc3c(cnn3-c3ccc(F)cc3)c2)[C@H](C)NC(=O)C(C)C)cc1 [Example 51, N-[(1R,2S)-1-(4-ethylphenyl)-1-[1-(4-fluorophenyl)indazol-5-yl]oxy-propan-2-yl]-2-methyl-propanamide]",4.3 nM
24,"COc1cccc([C@@H](Oc2ccc3c(cnn3-c3ccc(F)cc3)c2)[C@H](C)NC(=O)CF)c1 [Example 53, 2-Fluoro-N-[(1R,2S)-1-[1-(4-fluorophenyl)indazol-5-yl]oxy-1-(3-methoxyphenyl)propan-2-yl]acetamide]",3.5 nM
25,"COCC(=O)N[C@@H](C)[C@H](Oc1ccc2c(cnn2-c2ccc(F)cc2)c1)c1cccc(OC)c1 [Example 54, N-[(1R,2S)-1-[1-(4-fluorophenyl)indazol-5-yl]oxy-1-(3-methoxyphenyl)propan-2-yl]-2-methoxy-acetamide]",2.9 nM
